The record followed here is patent US11123355B2, “Antiviral benzyl-amine phosphodiamide compounds” (Merck Sharp & Dohme Corp., priority 2016, dated 2021).

Read-outs that look alike come from different tables or passages of the source.

For the experiment, the system named is HIV-1 (H9/IIB strain). The experiment in a line: Multiple Round HIV-1 Infection Assay (Viking Assay) in MT4-GFP cells. The note with it: inhibition of reproductive ratio R0. The format is cell-based. As for the experimental part: Assessing antiviral potency in a Multiple Round HIV-1 Infection Assay (Viking Assay) The antiviral activity of the tenofovir prodrugs of the Examples herein was assessed in an assay that measures the rate of replication of HIV in cell culture, termed the Viking assay (VIral KINetics in Green cells) and performed as follows. HIV-1 replication was monitored using MT4-gag-GFP clone D3 (hereafter designated MT4-GFP), which are MT-4 cells modified to harbor a GFP reporter gene, the expression of which is dependent on the HIV-1 expressed proteins tat and rev. Productive infection of an MT4-GFP cell with HIV-1 results in GFP expression approximately 24 h post-infection. MT4-GFP cells were maintained at 37° C./5% CO2/90% relative humidity in RPMI 1640 supplemented with 10/o fetal bovine serum, 100 U/ml penicillin/streptomycin, and 400 μg/ml G418 to maintain the reporter gene. For infections, MT4-GFP cells were placed in the same medium lacking G418 and infected overnight with HIV-1 (H9/IIB strain) virus at an approximate multiplicity of infection of 0.01 in the same incubation conditions. Cells were then washed and re-suspended in either RPMI 1640 supplemented with 10% or 50% normal human serum (NHS) at 1.6×10^5 cells/mL (10% NHS or 50% NHS, respectively). Compound plates were prepared by dispensing compounds dissolved in DMSO into wells of 384 well poly-D-lysine-coated plates (0.2 μl/well) using an ECHO acoustic dispenser. Each compound was tested in a 10-point serial 3-fold dilution (typical final concentrations: 8.4 μM-0.42 nM). Controls included no inhibitor (DMSO only) and a combination of three antiviral agents (efavirenz, indinavir, an in-house integrase strand transfer inhibitor at final concentrations of 4 μM each). Cells were added (50 μL/well) to compound plates and the infected cells were maintained at 37° C./5% CO2/90% relative humidity.
Infected cells were quantified at two time points, ˜48 h and ˜72 h post-infection, by counting the number of green cells in each well using an Acumen eX3 scanner. The increase in the number of green cells over ˜24 h period gives the reproductive ratio, R0, which is typically 5-15 and has been shown experimentally to be in logarithmic phase (data not shown). Inhibition of R0 is calculated for each well, and IC50s determined by non-linear 4-parameter curve fitting.

[1] abbreviates: MT4-GFP cells infected with HIV-1, 10% normal human serum, read-out: Viking, IC50 (10% NHS).
Where [2] appears, read: MT4-GFP cells infected with HIV-1, 50% normal human serum, read-out: Viking, IC50 (50% NHS).

Broadly, the IC50 is the concentration that inhibits the measured activity by half. Consider `CCCOC(=O)C(C)(C)NP(=O)(CO[C@H](C)Cn1cnc2c(N)ncnc21)N[C@@H](C)c1ccc(Cl)cc1C` (stereo partly drawn) [Example 30B, propyl 2-(((R)-((((R)-1-(6-amino-9H-purin-9-yl)propan-2-yl)oxy)methyl)(((S)-1-(4-chloro-2-methylphenyl)ethyl)amino)phosphoryl)ami-no)-2-methylpropanoate and propyl 2-(((S)-((((R)-1-(6-amino-9H-purin-9-yl)propan-2-yl)oxy)methyl)(((S)-1-(4-chloro-2-methylphenyl)ethyl)amino)phosphoryl)ami-no)-2-methylpropanoate], for which the IC50 runs as follows: under setting [1], 0.056 µM; under setting [2], 0.75 µM.

Take “propyl 2-(((R)-((((R)-1-(6-amino-9H-purin- 9-yl)propan-2-yl)oxy)methyl)((4- cyanobenzyl)amino)phosphoryl)amino)-2- methylpropanoate and propyl 2-(((S)-((((R)-1-(6-amino-9H-purin- 9-yl)propan-2-yl)oxy)methyl)((4- cyanobenzyl)amino)phosphoryl)amino)-2- methylpropanoate [Example 6A]”: the IC50 amounted to 0.07 µM under setting [1] and 0.66 µM under setting [2].

With `CCCOC(=O)C(C)(C)N[P@@](=O)(CO[C@H](C)Cn1cnc2c(N)ncnc21)N[C@H](c1cccc(F)c1)C(F)(F)F` [Example 22A, propyl 2-(((R)-((((R)-1-(6-amino-9H-purin-9-yl)propan-2-yl)oxy)methyl)(((R)-2,2,2-trifluoro-1-(3-fluorophenyl)ethyl)amino)phosphoryl)ami-no)-2-methylpropanoate and propyl 2-(((S)-((((R)-1-(6-amino-9H-purin-9-yl)propan-2-yl)oxy)methyl)(((R)-2,2,2-trifluoro-1-(3-fluorophenyl)ethyl)amino)phosphoryl)ami-no)-2-methylpropanoate], the IC50 is 0.0081 µM under setting [1] and 0.074 µM under setting [2].

`CCCOC(=O)C(C)(C)NP(=O)(CO[C@H](C)Cn1cnc2c(N)ncnc21)N[C@H](C)c1ccc(C#N)cc1` (stereo partly drawn) [Example 31A, propyl 2-(((R)-((((R)-1-(6-amino-9H-purin-9-yl)propan-2-yl)oxy)methyl)(((R)-1-(4-cyanophenyl)ethyl)amino)phosphoryl)ami-no)-2-methylpropanoate and propyl 2-(((S)-((((R)-1-(6-amino-9H-purin-9-yl)propan-2-yl)oxy)methyl)(((R)-1-(4-cyanophenyl)ethyl)amino)phosphoryl)ami-no)-2-methylpropanoate]: the IC50 under setting [1] came to 0.083 µM and the IC50 under setting [2] is 0.77 µM.

Consider `CCCOC(=O)C(C)(C)NP(=O)(CO[C@H](C)Cn1cnc2c(N)ncnc21)N[C@H](C)c1ccc(Cl)cc1` (stereo partly drawn) [Example 1A, propyl 2-(((R)-((((R)-1-(6-amino-9H-purin-9-yl)propan-2-yl)oxy)methyl(((R)-1-(4-chlorophenyl)ethyl)amino)phosphoryl)amino)-2-methylpropanoate and propyl 2-(((S)-((((R)-1-(6-amino-9H-purin-9-yl)propan-2-yl)oxy)methyl)(((R)-1-(4-chlorophenyl)ethyl)amino)phosphoryl)amino)-2-methylpropanoate], for which the IC50 reads like this: (Human immunodeficiency virus 1, MT4-GFP cells infected with HIV-1, 10% normal human serum, read-out: Viking, IC50 (10% NHS)) 0.12 µM; (Human immunodeficiency virus 1, MT4-GFP cells infected with HIV-1, 50% normal human serum, read-out: Viking, IC50 (50% NHS)) 0.71 µM.

As to “isopropyl 2-(((R)-((((R)-1-(6-amino-9H- purin-9-yl)propan-2-yl)oxy)methyl)((2-(4- chlorophenyl)propan-2- yl)amino)phosphoryl)amino)-2- methylpropanoate and isopropyl 2-(((S)-((((R)-1-(6-amino-9H- purin-9-yl)propan-2-yl)oxy)methyl)((2-(4- chlorophenyl)propan-2- yl)amino)phosphoroyl)amino)-2- methylpropanoate [Example 36B]”, the IC50 was determined as 0.2 µM under setting [1] and 1.1 µM under setting [2].

Turning to “propyl 2-(((R)-((((R)-1-(6-amino-9H-purin- 9-yl)propan-2-yl)oxy)methyl)(((R)-1-(4- cyanophenyl)-2,2,2- trifluoroethyl)amino)phosphoryl)amino)-2- methylpropanoate and propyl 2-(((S)-((((R)-1-(6-amino-9H-purin- 9-yl)propan-2-yl)oxy)methyl)(((R)-1-(4- cyanophenyl)-2,2,2- trifluoroethyl)amino)phosphoryl)amino)-2- methylpropanoate [Example 23B]”, the IC50 runs as follows: under setting [1], 0.047 µM; under setting [2], 0.14 µM.

Regarding `CCCOC(=O)C(C)(C)NP(=O)(CO[C@H](C)Cn1cnc2c(N)ncnc21)N[C@@H](C)c1ccc(C(F)(F)F)cc1` (stereo partly drawn) [Example 11A, propyl 2-(((R)-((((R)-1-(6-amino-9H-purin-9-yl)propan-2-yl)oxy)methyl)(((S)-1-(4-(trifluoromethyl)phenyl)ethyl)amino)phos-phoryl)amino)-2-methylpropanoate and propyl 2-(((S)-((((R)-1-(6-amino-9H-purin-9-yl)propan-2-yl)oxy)methyl)(((S)-1-(4-(trifluoromethyl)phenyl)ethyl)amino)phosphoryl)amino)-2-methylpropanoate], the IC50 by setting is: under setting [1], 0.0046 µM; under setting [2], 0.042 µM.

Take `CCCOC(=O)C(C)(C)N[P@@](=O)(CO[C@H](C)Cn1cnc2c(N)ncnc21)N[C@@H](C)c1cccc(F)c1` [Example 10A, propyl 2-(((R)-((((R)-1-(6-amino-9H-purin-9-yl)propan-2-yl)oxy)methyl)(((S)-1-(3-fluorophenyl)ethyl)amino)phosphoryl)ami-no)-2-methylpropanoate and propyl 2-(((S)-((((R)-1-(6-amino-9H-purin-9-yl)propan-2-yl)oxy)methyl)(((S)-1-(3-fluorophenyl)ethyl)amino)phosphoryl)ami-no)-2-methylpropanoate]: the IC50 stood at 0.068 µM under setting [1] and 0.56 µM under setting [2].

“propyl 2-(((R)-((((R)-1-(6-amino-9H-purin- 9-yl)propan-2-yl)oxy)methyl)((3- fluorobenzyl)amino)phosphoryl)amino)-2- methylpropanoate and propyl 2-(((S)-((((R)-1-(6-amino-9H-purin- 9-yl)propan-2-yl)oxy)methyl)((3- fluorobenzyl)amino)phosphoryl)amino)-2- methylpropanoate [Example 8B]”: the IC50 under setting [1] was determined as 0.076 µM and the IC50 under setting [2] came to 0.68 µM.

As to `CC(C)OC(=O)C(C)(C)N[P@@](=O)(CO[C@H](C)Cn1cnc2c(N)ncnc21)N[C@H](C)c1ccc(Cl)cc1` [Example 35A, isopropyl 2-(((R)-((((R)-1-(6-amino-9H-purin-9-yl)propan-2-yl)oxy)methyl)(((R)-1-(4-chlorophenyl)ethyl)amino)phosphoryl)ami-no)-2-methylpropanoate and isopropyl 2-(((S)-((((R)-1-(6-amino-9H-purin-9-yl)propan-2-yl)oxy)methyl)(((R)-1-(4-chlorophenyl)ethyl)amino)phosphoryl)ami-no)-2-methylpropanoate], the IC50 by setting is: under setting [1], 0.28 µM; under setting [2], 1.6 µM.

Regarding “propyl 2-(((R)-((((R)-1-(6-amino-9H-purin- 9-yl)propan-2-yl)oxy)methyl)(((S)-1-(p- tolyl)ethyl)amino)phosphoryl)amino)-2- methylpropanoate and propyl 2-(((S)-((((R)-1-(6-amino-9H-purin- 9-yl)propan-2-yl)oxy)methyl)(((S)-1-(p- tolyl)ethyl)amino)phosphoryl)amino)-2- methylpropanoate [Example 18B]”, the IC50 is, setting by setting: under setting [1], 0.037 µM; under setting [2], 0.52 µM.

Regarding `CCCOC(=O)C(C)(C)NP(=O)(CO[C@H](C)Cn1cnc2c(N)ncnc21)N[C@H](C)c1ccc(C(F)(F)F)cc1` (stereo partly drawn) [Example 12A, propyl 2-(((R)-((((R)-1-(6-amino-9H-purin-9-yl)propan-2-yl)oxy)methyl)(((R)-1-(4-(trifluoromethyl)phenyl)ethyl)amino)phos-phoryl)amino)-2-methylpropanoate and propyl 2-(((S)-((((R)-1-(6-amino-9H-purin-9-yl)propan-2-yl)oxy)methyl)(((R)-1-(4-(trifluoromethyl)phenyl)ethyl)amino)phos-phoryl)amino)-2-methylpropanoate], the IC50 is, setting by setting: under setting [1], 0.096 µM; under setting [2], 0.68 µM.
